This passage reports TGI and GI50 results from PubChem BioAssay (NCI).

Usually TGI stands for the concentration at which net growth stops. A higher TGI goes with lower sensitivity of the cells. By GI50 is commonly meant the concentration giving 50% growth inhibition.

Assay in all cases: DTP human tumour cell line panel, 48 h
Assay [1] relates to MCF7 breast.
Assay [2] deals with HS 578T breast.
Assay [3] concerns A549 NSCLC.
Assay [4] relates to HCC-2998 colon.
Assay [5] concerns KM12 colon.
Assay [6] deals with SNB-75 CNS.
The subject of assay [7] is BT-549 breast.
Assay [8] relates to DU-145 prostate.
In assay [9] the test system is HL-60(TB) leukemia.
The subject of assay [10] is SNB-78 CNS.

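All cell lines were grown in 96-well plates and treated with compound for 48 hours. GI50 is the concentration that inhibits growth by half. TGI denotes the concentration required for complete inhibition of growth.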 Where a SMILES comes first, the peptide text is derived from it.

Turning to `CCOP(=O)(OCC)C(NC(=O)OCC(Cl)(Cl)Cl)n1nnc(C(=O)OC)c1C(=O)OC` (centres undefined), the TGI in [1], in assay [2], in [3], in assay [4], in assay [5] and in [6] was > 100 µM throughout. For the same molecule, the TGI in assay [7], in [8] and in assay [9] was > 100 µM each time.
`Clc1ccc(N=C/C=C/Nc2ccc(Cl)cn2)nc1`: the TGI in assay [1] came out at 31.6 µM; in assay [2] it was 23.3 µM; in assay [3] it was 29.1 µM; in assay [4], 0.922 µM; in assay [5], 21 µM; in assay [6] it was 25.7 µM. Further, the TGI came to 31 µM in assay [7], 31.6 µM in assay [8] and 3.91 µM in assay [9].
Consider `CC1NC(=O)CNC(=O)CNC(=O)C(Cc2ccc(O)cc2)NC(=O)C(C(C)C)NC(=O)C(C)NC1=O` (centres undefined) (cyclo(GGAAVY); configuration not given here), for which the TGI in assay [1], in assay [3], in assay [4], in assay [5], in assay [6] and in assay [10] was > 100 µM throughout. Further, the TGI in [9] is > 100 µM. Further, in assay [10], the GI50 was > 100 µM.
On to `CC(=O)N=C(N=Nc1c(O)[nH]c2ccc(C)cc12)NC(C)=O`, for which the TGI in assay [1], in assay [2], in assay [3], in assay [4], in [5] and in [6] was > 100 µM in each case. The concentration for total growth inhibition (TGI) in [7], in [8] and in [9] was > 100 µM each time.
Consider `O=C(O)CC(C(=O)O)c1ccccc1[N+](=O)[O-]` (centres undefined), for which the concentration for total growth inhibition (TGI) in assay [1], in assay [2], in [3], in [4], in assay [5] and in [6] was > 100 µM in each case. Further, the total growth inhibition concentration (TGI) in assay [7], in assay [8] and in assay [9] was > 100 µM in each case.
Take `O=c1c2ccccc2nc2n1NC(c1c(Cl)cccc1Cl)N2c1cccc(Cl)c1` (centres undefined): the TGI is 5.2 µM in assay [1]; > 100 µM in assay [2]; 22.2 µM in [3]; > 100 µM in assay [4]; > 100 µM in assay [5]; 9.92 µM in assay [6]. Further, the TGI in assay [7], in assay [8] and in assay [9] was > 100 µM in each case.
`OC1(c2ccccc2)CC2CCC(C1)N2CCc1ccccc1` (centres undefined): the TGI is 78.1 µM in assay [1]; 80.6 µM in [2]; > 100 µM in [3]; > 100 µM in [4]; > 100 µM in assay [5]; > 100 µM in assay [6]. For the same molecule, the TGI in assay [7], in [8] and in assay [9] was > 100 µM throughout.
As for `CCc1ccc(-c2nnc(COc3ccc(-c4nc5ccc(C)cc5[nH]4)cc3OC)o2)cc1`, the GI50 in assay [1] is 3.36 µM; in assay [2], 2.07 µM; in assay [3], 4.21 µM; in [4], 11.4 µM; in assay [5] it was 5.39 µM; in assay [6], 1.41 µM. The figures for the GI50 in [7], in assay [8] and in [9] were 1.96 µM, 5.98 µM and 2.01 µM, respectively. Also, the TGI in [1] was > 100 µM; in assay [2] it was 5.01 µM; in assay [3] it was > 100 µM; in assay [4], > 100 µM; in [5] it was > 100 µM; in assay [6], 2.96 µM. For the same molecule, the TGI in assay [7] was 4.34 µM; in assay [8], > 100 µM; in assay [9], 4.26 µM.
`CCOc1c2ccsc2c(OCC)c2ccsc12`: the TGI in assay [1] is 31.7 µM; in [2] it was > 73.7 µM; in [3], > 100 µM; in assay [4] it was > 75.5 µM; in assay [5], > 100 µM; in [6], > 28.3 µM. For the same molecule, the concentration for total growth inhibition (TGI) in assay [7] was > 100 µM; in [8], > 100 µM; in [9], 7.43 µM.
Turning to `CNC(=S)/C(=N\Nc1nc[nH]c1C(N)=O)C(N)=S`, the TGI in [1] is > 100 µM; in [2] it was > 81.8 µM; in [3], > 100 µM; in assay [4], 22.8 µM; in [5], 24.4 µM; in [6] it was 71.9 µM. Besides, the TGI was > 100 µM in assay [7], 34.9 µM in [8] and 7.83 µM in assay [9].
As to `Cc1cc2nc3n[nH]c(N)c3nc2cc1C`, the TGI in assay [1] was > 100 µM; in [2] it was > 100 µM; in [3] it was > 100 µM; in [4], > 100 µM; in assay [5], > 100 µM; in assay [6], 87.8 µM. Further, the TGI in [7], in assay [8] and in [9] was > 100 µM in each case.
With `Cc1[nH]c2ncn3nc(C(Cl)(Cl)Cl)nc3c2c1Cc1ccccc1`, the TGI in [1], in [2], in assay [3], in assay [4], in [5] and in assay [6] was > 100 µM each time. In addition, the TGI in [7], in assay [8] and in [9] was > 100 µM in each case.
In the case of `CN1CCCN2CCN(C)CCN(CC1)CC2`, the TGI in assay [1], in assay [2], in assay [3], in assay [4], in assay [5] and in assay [6] was > 100 µM in each case. Also, the TGI in assay [7], in assay [8] and in assay [9] was > 100 µM throughout.
As for `Cc1ccc2c(c1)SSSSS2`, the TGI in assay [1] worked out at 43 µM; in assay [2], 69.6 µM; in [3], 48.7 µM; in [4], 31.6 µM; in assay [5], 34 µM; in assay [6], 49.2 µM. The TGI in assay [7] was found to be 39.1 µM; in assay [8], 31.2 µM; in assay [9] it was 42.2 µM.
